Among the data in patent publication US10053456B2, “Cyclopropanamine compound and use thereof” (Takeda Pharmaceutical Company Limited, priority 2014, dated 2018) are activity values, retold here.

Where a name gives a salt, the structure may show the parent alone.

The test system of the test is Gad1 H3K4me2 level in rat primary culture neurons. Nature of the test: Gad1 H3K4 methylation induction activity in rat primary culture neurons (ChIP, quantitative PCR). In kind it is cell-based. Particulars: Neuron, 72 h, 3 days culture, control without compound = 100%.

On to `Cc1nnc(NC(=O)c2cc([C@@H]3C[C@H]3NC3CCC3)cs2)s1` [Example 118, 4-((1S,2R)-2-(cyclobutylamino)cyclopropyl)-N-(5-methyl-1,3,4-thiadiazol-2-yl)thiophene-2-carboxamide sulfate], for which the activity at 10 µM was found to be 233%.
